Measured values reported in US12617837B2, “Composition for use in treatment of allergic diseases” (UNIVERSITY OF TSUKUBA, priority 2019, dated 2026).

T1: mouse Clec10a (Mus musculus, UniProt P49300)
T1 construct: an extracellular and transmembrane portions of Clec10a fused to a cytoplasmic portion of CD3; expressed in transfected cells; host or cells: 2B4-NFAT-GFP reporter cells, pMXs-puro retroviral vector
T1 sequence (P49300 57-304 limits assumed): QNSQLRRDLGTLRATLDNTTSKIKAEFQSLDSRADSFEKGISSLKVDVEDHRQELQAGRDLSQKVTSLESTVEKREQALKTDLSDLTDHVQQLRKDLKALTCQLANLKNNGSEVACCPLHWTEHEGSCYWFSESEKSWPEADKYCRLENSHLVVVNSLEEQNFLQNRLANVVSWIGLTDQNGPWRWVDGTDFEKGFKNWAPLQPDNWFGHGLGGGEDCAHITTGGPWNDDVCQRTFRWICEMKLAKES

T2: Clec10a-Fc (Mus musculus, UniProt P49300)
T2 construct: cloning the extracellular region of mouse Clec10a into a pME18S expression vector; made in house; host or cells: HEK293T cells
T2 sequence (P49300 57-304 limits assumed): T1 sequence (P49300 57-304 limits assumed)

B1: rPAIL (protein, UniProt Q05097 2-122, looked up)
PA-I galactophilic lectin: AWKGEVLANNEAGQVTSIIYNPGDVITIVAAGWASYGPTQKWGPQGDREHPDQGLICHDAFCGALVMKIGNSGTIPVNTGLFRWVAPNNVQGAITLIYNDVPGTYGNNSGSFSVNIGKDQS
B2: PNA (protein, UniProt P02872 24-273, looked up)
Galactose-binding lectin: AETVSFNFNSFSEGNPAINFQGDVTVLSNGNIQLTNLNKVNSVGRVLYAMPVRIWSSATGNVASFLTSFSFEMKDIKDYDPADGIIFFIAPEDTQIPAGSIGGGTLGVSDTKGAGHFVGVEFDTYSNSEYNDPPTDHVGIDVNSVDSVKTVPWNSVSGAVVKVTVIYDSSTKTLSVAVTNDNGDITTIAQVVDLKAKLPERVKFGFSASGSLGGRQIHLIRSWSFTSTLITTTRRSIDNNEKKIMNMASA
B3: AAL (protein, UniProt P18891 2-313, looked up)
Fucose-specific lectin: PTEFLYTSKIAAISWAATGGRQQRVYFQDLNGKIREAQRGGDNPWTGGSSQNVIGEAKLFSPLAAVTWKSAQGIQIRVYCVNKDNILSEFVYDGSKWITGQLGSVGVKVGSNSKLAALQWGGSESAPPNIRVYYQKSNGSGSSIHEYVWSGKWTAGASFGSTVPGTGIGATAIGPGRLRIYYQATDNKIREHCWDSNSWYVGGFSASASAGVSIAAISWGSTPNIRVYWQKGREELYEAAYGGSWNTPGQIKDASRPTPSLPDTFIAANSSGNIDISVFFQASGVSLQQWQWISGKGWSIGAVVPTGTPAGW

Key:
mouse Clec10a = target: T1, mouse Clec10a; assay: Mouse Clec10a-CD3ζ NFAT-GFP reporter cell assay; type: cell-based; details: stimulation with coated plates, 18 hours, flow cytometry
Description: The intracellular region of human CD3ζ was obtained from a vector provided by LL Lanier (University of California, San Francisco). The extracellular region of mouse or human Clec10a or the extracellular region of human Asgr1 was subcloned into a pMXs-puro retroviral vector. 2B4-NFAT-GFP reporter cells were provided from H. Arase (University of Osaka). 2B4-NFAT-GFP reporter cells stably expressing mouse or human Clec10a were made as described previously. The reporter cells were incubated for 18 hours in the presence or absence of anti-Clec10a mAb, Lewis X (GlycoTech), Lewes Y (GlycoTech), galactose (Sigma-Aldrich), glucose (Sigma-Aldrich) or mannose (Sigma-Aldrich). The reporter cells were also cultured on a galactosidase (R & D Systems, 5704 GH or 5549 GH) or glucosidase (R & D Systems, 8329-GH), or Clec10 ligand-coated plate, or an HDM extract-coated plate treated with size-fractionated Clec10a ligand or untreated. Activation of NFAT-GFP was monitored by flow cytometry.
To test whether Clec10a recognized glycosylated proteins contained in HDM, NFAT-GFP reporter cells (Clec10a reporter cells) were made which expressed chimeric fusion proteins inch ling an extracellular and transmembrane portions of Clec10a fused to a cytoplasmic portion of CD3.

Clec10a-Fc = target: T2, Clec10a-Fc; assay: Sugar conjugate (glycan) microarray analysis of Clec10a-Fc (Table 7); type: binding; details: for Signal value, Clec10a-Fc: glycan microarray probed with Clec10a-Fc; for Signal value, Clec10a-Fc with EDTA: glycan microarray probed with Clec10a-Fc with EDTA
Description: A sugar conjugate microarray containing 98 sugar conjugates (Table 3) was prepared according to a known method using a non-contact microarray printing robot (MicroSys 4000; Genomic Solutions).

human IgG1 = assay: Glycan microarray probed with human IgG1 (control of Table 7); type: binding
[1] = test system: lectins (96 lectins of Table 2); assay: Lectin microarray analysis of Clec10a ligand in HDM (Table 6); type: binding; details: for Signal value, Target: Target: Pull-down assay sample from HDM using Clec10a-Fc (Clec10a ligand), signal at each lectin spot of the lectin microarray
Description: Lectin microarrays were made using a non-contact microarray printing robot (MicroSys4000; Genomic Solutions) according to the previous method. Samples were fluorescently labeled with Cy3 Mono-Reactive dye (Ge) and excess Cy3 was removed using a Sephadex g-25 desalting column (Ge). After 10 fold dilution with a probe solution (25 mM Tris-HCl, pH 7.5, 140 mM NaCl) (TBS) containing 2.7 mM KCl, 1 mM CaCl2, 1 mM MnCl2, and 1% Triton X-100, a Cy3-labeled sample was applied to a lectin microarray and incubated at 20° C. overnight. The sample was washed with a probe solution, and a fluorescence image was obtained using an evanescent-field activated fluorescence scanner (Bio-Rad scan 200, Rexxam Co. Ltd.). Lectin signals in triplicate spots were averaged for each protein sample and normalized to an average value of 96 lectins.

Row | Molecule | GFP expression in mouse Clec10a reporter cells (mouse Clec10a) | Signal value, Clec10a-Fc (Clec10a-Fc) | Signal value, Clec10a-Fc with EDTA (Clec10a-Fc) | Signal value, human IgG1 (human IgG1) | Binding to lectins in lectin microarray ([1]; Cy3-labeled sample) | Signal value, Target [1] | Binding of Clec10a-Fc in glycan microarray (Clec10a-Fc; Clec10a-Fc 10 μg/mL)
1 | CC(=O)N[C@@H]1[C@@H](O[C@@H]2O[C@@H](C)[C@@H](O)[C@@H](O)[C@@H]2O)[C@H](O[C@@H]2O[C@H](CO)[C@H](O)[C@H](O)[C@H]2O)[C@@H](CO)O[C@H]1O [Lewis X, reference compound] | expressed GFP | – | – | – | – | – | –
2 | CC(=O)N[C@H]1[C@H]([C@H](O)[C@H](O)CO)O[C@@](O[C@H](CO)[C@@H](O)[C@@H]2O[C@@](O)(C(=O)O)C[C@H](O)[C@H]2NC(C)=O)(C(=O)O)C[C@@H]1O [Siα2] | – | 0 | 0 | 0 | – | – | –
3 | CC(=O)N[C@@H]1[C@@H](O[C@@H]2O[C@H](CO)[C@H](O)[C@H](O)[C@H]2O)[C@@H](O)[C@@H](CO)O[C@@H]1O [T (Core1)] | – | 2504 | 0 | 0 | – | – | –
4 | O=S(=O)(O)O[C@@H]1[C@@H](O)[C@H](O)O[C@H](CO)[C@@H]1O [[3S] βGal] | – | 3 | 0 | 0 | – | – | –
5 | CC(=O)N[C@@H]1[C@@H](O[C@@H]2O[C@H](CO)[C@H](O)[C@H](OS(=O)(=O)O)[C@H]2O)[C@H](O[C@@H]2O[C@@H](C)[C@@H](O)[C@@H](O)[C@@H]2O)[C@@H](CO)O[C@H]1O [[3S]Lea] | – | 0 | 0 | 0 | – | – | –
6 | CC(=O)N[C@@H]1[C@@H](O)[C@H](O[C@@H]2O[C@H](CO)[C@H](O)[C@H](O[C@]3(C(=O)O)C[C@H](O)[C@@H](NC(C)=O)[C@H]([C@H](O)[C@H](O)CO)O3)[C@H]2O)[C@@H](CO)O[C@H]1O [[3′S]LN] | – | 0 | 0 | 0 | – | – | –
7 | CC(=O)N[C@@H]1[C@@H](O[C@@H]2O[C@H](CO)[C@H](O)[C@H](OS(=O)(=O)O)[C@H]2O)[C@H](O)[C@@H](CO)O[C@H]1O [[3′S]Lec] | – | 0 | 0 | 0 | – | – | –
8 | O=P(O)(O)OC[C@H]1O[C@H](O)[C@@H](O)[C@@H](O)[C@@H]1O [[6P]Man] | – | 0 | 0 | 0 | – | – | –
9 | CC(=O)N[C@@H]1[C@@H](O)[C@H](O)[C@@H](COS(=O)(=O)O)O[C@H]1O [[6S]BGlcNAc] | – | 0 | 0 | 318 | – | – | –
10 | CC(=O)N[C@@H]1[C@@H](O)[C@H](O[C@@H]2O[C@H](CO)[C@H](O)[C@H](O)[C@H]2O)[C@@H](COS(=O)(=O)O)O[C@H]1O [[6S]LN] | – | 0 | 0 | 0 | – | – | –
11 | CC(=O)N[C@@H]1[C@@H](O)[C@H](O[C@@H]2O[C@H](COS(=O)(=O)O)[C@H](O)[C@H](O)[C@H]2O)[C@@H](CO)O[C@H]1O [[6′S]LN] | – | 0 | 0 | 0 | – | – | –
12 | CC(=O)N[C@@H]1[C@@H](O[C@@H]2O[C@H](CO)[C@H](O)[C@H](O)[C@H]2NC(C)=O)[C@@H](O)[C@@H](CO)O[C@H]1O [di-GalNAcβ] | – | 65 | 0 | 0 | – | – | –
13 | CC(=O)N[C@@H]1[C@@H](O[C@@H]2O[C@H](CO)[C@H](O)[C@H](O[C@]3(C(=O)O)C[C@H](O)[C@@H](NC(C)=O)[C@H]([C@H](O)[C@H](O)CO)O3)[C@H]2O)[C@H](O[C@@H]2O[C@@H](C)[C@@H](O)[C@@H](O)[C@@H]2O)[C@@H](CO)O[C@H]1O [sLea] | – | 0 | 0 | 0 | – | – | –
14 | CC(=O)N[C@@H]1[C@@H](O[C@@H]2O[C@@H](C)[C@@H](O)[C@@H](O)[C@@H]2O)[C@H](O[C@@H]2O[C@H](CO)[C@H](O)[C@H](O[C@]3(C(=O)O)C[C@H](O)[C@@H](NC(C)=O)[C@H]([C@H](O)[C@H](O)CO)O3)[C@H]2O)[C@@H](CO)O[C@H]1O [sLex] | – | 1 | 0 | 0 | – | – | –
15 | OC[C@H]1O[C@H](O)[C@@H](O)[C@@H](O)[C@@H]1O [αMan] | – | 0 | 0 | 0 | – | – | –
16 | CC(=O)N[C@@H]1[C@@H](O)[C@@H](O)[C@@H](CO)O[C@H]1O [βGalNAc] | – | 6 | 0 | 0 | – | – | –
17 | OC[C@H]1O[C@@H](O)[C@H](O)[C@@H](O)[C@H]1O [βGal] | – | 1867 | 0 | 0 | – | – | –
18 | OC[C@H]1O[C@@H](O)[C@@H](O)[C@@H](O)[C@@H]1O [βMan] | – | 0 | 0 | 0 | – | – | –
19 | Chitobiose | – | 0 | 0 | 0 | – | – | –
20 | Clec10a | – | – | – | – | most strongly bound to the lectins of Maclura pomifera (MPA) | – | –
21 | Galβ 1-3(Fucα 1-4)GlcNAcβ 1-PAA [LeA] | activated Clec10a in a dose-dependent manner | 5532 | 0 | 0 | – | – | –
22 | Galβ.1-4(Fucα 1-3)GlcNAcβ 1-PAA [LeX] | activated Clec10a in a dose-dependent manner | 2535 | 0 | 0 | – | – | –
23 | PHAL | – | 0 | 0 | 0 | – | 0 | –
24 | rGal7 | – | 0 | 0 | 0 | – | 0 | –
25 | rMalectin | – | 0 | 0 | 0 | – | 0 | –
26 | αGalNAc [Tn antigen] | – | 682 | 0 | 0 | – | – | binds
27 | B1 | – | 0 | 0 | 0 | – | 0 | –
28 | B2 | – | – | – | – | – | 10699 | –
29 | B3 | – | – | – | – | – | 7508 | –
